In experiment [1] the test system is Rattus norvegicus. As to the kind of experiment: Analgesic activity in albino rat model of thermal-induced nociception assessed as tail withdrawal latency time at 100 mg/kg, po measured at 120 mins post dose by tail immersion test (reference value: 2.63 +/- 0.15 min). It is filed as functional.
For experiment [2], the target named is T1, Prostaglandin G/H synthase 2 (Homo sapiens, UniProt P35354).
T1 sequence (P35354 whole entry): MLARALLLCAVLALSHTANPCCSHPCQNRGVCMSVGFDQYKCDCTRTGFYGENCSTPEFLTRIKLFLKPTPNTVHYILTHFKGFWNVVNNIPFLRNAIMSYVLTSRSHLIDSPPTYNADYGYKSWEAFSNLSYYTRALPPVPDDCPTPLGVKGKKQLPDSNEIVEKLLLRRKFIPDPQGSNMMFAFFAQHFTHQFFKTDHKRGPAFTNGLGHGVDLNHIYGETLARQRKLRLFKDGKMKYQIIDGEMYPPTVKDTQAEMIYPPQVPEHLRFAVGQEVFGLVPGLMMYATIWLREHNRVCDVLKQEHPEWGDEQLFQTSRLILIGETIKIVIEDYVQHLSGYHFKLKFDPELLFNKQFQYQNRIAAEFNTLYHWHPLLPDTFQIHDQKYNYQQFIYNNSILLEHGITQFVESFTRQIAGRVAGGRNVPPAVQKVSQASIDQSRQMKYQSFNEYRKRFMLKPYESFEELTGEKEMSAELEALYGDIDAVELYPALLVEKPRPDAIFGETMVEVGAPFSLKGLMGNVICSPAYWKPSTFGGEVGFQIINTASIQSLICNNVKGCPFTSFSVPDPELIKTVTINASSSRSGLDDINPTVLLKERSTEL
Nature of the experiment: Inhibition of COX2 (unknown origin) using arachidonic acid as substrate pretreated for 10 mins followed by substrate addition measured after 2 mins by enzyme-immunoassay.

Experiment [3] addresses Prostaglandin G/H synthase 1 (Homo sapiens, UniProt P23219). Nature of the experiment: Inhibition of COX1 (unknown origin) using arachidonic acid as substrate pretreated for 10 mins followed by substrate addition measured after 2 mins by enzyme-immunoassay.
For experiment [4], the system named is Rattus norvegicus. As to the kind of experiment: Analgesic activity in albino rat model of thermal-induced nociception assessed as tail withdrawal latency time at 100 mg/kg, po measured immediately by tail immersion test (reference value: 2.60 +/- 0.14 min). The experiment is classed as functional.
The subject of experiment [5] is Rattus norvegicus. Nature of the experiment: Analgesic activity in albino rat model of thermal-induced nociception assessed as tail withdrawal latency time at 100 mg/kg, po measured at 60 mins post dose by tail immersion test (reference value: 2.62 +/- 0.11 min). The experiment is classed as functional.
In experiment [6] the test system is Rattus norvegicus. Nature of the experiment: Anti-inflammatory activity against carrageenan-induced paw oedema in albino rat assessed as paw thickness at 100 mg/kg measured at 6 hrs post dose (reference value: 0.92 +/- 0.03 cm). It is filed as functional. On the technique in general: In the carrageenan paw model, swelling and tenderness develop within hours.
The species named for the next experiment is Homo sapiens. As to the kind of experiment: Selectivity index, ratio of IC50 for COX1 (unknown origin) to IC50 for COX2 (unknown origin).
Experiment [7] has as its system Rattus norvegicus. As to the kind of experiment: Anti-inflammatory activity against carrageenan-induced paw oedema in albino rat assessed as paw thickness at 100 mg/kg measured at 3 hrs post dose (reference value: 0.93 +/- 0.02 cm). The experiment is classed as functional.
Experiment [8] has as its system Rattus norvegicus. Nature of the experiment: Analgesic activity in albino rat model of thermal-induced nociception assessed as tail withdrawal latency time at 100 mg/kg, po measured at 180 mins post dose by tail immersion test (reference value: 2.62 +/- 0.13 min). The experiment is classed as functional.
The test system of experiment [9] is Rattus norvegicus. Nature of the experiment: Analgesic activity in albino rat model of thermal-induced nociception assessed as tail withdrawal latency time at 100 mg/kg, po measured at 240 mins post dose by tail immersion test (reference value: 2.62 +/- 0.13 min). It is filed as functional.
The subject of experiment [10] is Rattus norvegicus. Nature of the experiment: Anti-inflammatory activity against carrageenan-induced paw oedema in rat assessed as paw thickness at 100 mg/kg measured immediately (reference value: 0.98 +/- 0.03 cm). It is filed as functional.
In experiment [11] the test system is Rattus norvegicus. As to the kind of experiment: Analgesic activity in albino rat model of thermal-induced nociception assessed as tail withdrawal latency time at 100 mg/kg, po measured at 300 mins post dose by tail immersion test (reference value: 2.58 +/- 0.11 min). The experiment is classed as functional.

The structures appear in SMILES notation.

Sequence of Prostaglandin G/H synthase 1 (P23219 whole entry): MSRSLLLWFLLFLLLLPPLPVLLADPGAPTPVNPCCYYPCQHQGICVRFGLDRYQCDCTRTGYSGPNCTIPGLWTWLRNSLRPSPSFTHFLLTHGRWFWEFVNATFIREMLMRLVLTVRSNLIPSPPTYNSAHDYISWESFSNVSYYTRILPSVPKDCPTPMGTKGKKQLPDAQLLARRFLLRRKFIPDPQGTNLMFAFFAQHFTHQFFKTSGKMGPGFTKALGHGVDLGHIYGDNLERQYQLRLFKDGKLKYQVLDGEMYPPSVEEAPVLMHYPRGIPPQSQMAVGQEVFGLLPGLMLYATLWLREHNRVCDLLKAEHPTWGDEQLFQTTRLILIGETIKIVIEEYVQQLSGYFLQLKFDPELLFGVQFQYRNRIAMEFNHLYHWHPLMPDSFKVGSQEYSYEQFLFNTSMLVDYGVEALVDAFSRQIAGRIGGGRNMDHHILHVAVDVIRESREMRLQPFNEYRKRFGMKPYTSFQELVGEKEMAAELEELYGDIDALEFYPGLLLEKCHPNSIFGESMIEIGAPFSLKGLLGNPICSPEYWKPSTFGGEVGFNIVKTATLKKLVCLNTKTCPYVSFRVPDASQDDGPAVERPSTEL

Usually IC50 stands for the midpoint of a concentration-inhibition curve. Regarding `CCOC(=O)C1=C(N)N2C(=O)CCC(=O)N2C1c1ccccc1O` (stereo not given), the Time was found to be 6.68 min with Rattus norvegicus [1]; 2.63 min in the experiment on Rattus norvegicus [4]; 5.53 min in the experiment on Rattus norvegicus [5]; 6.85 min in the experiment with Rattus norvegicus [8]; 6.33 min in the experiment with Rattus norvegicus [9]; 5.62 min with Rattus norvegicus [11]. The IC50 in experiment [2] (read-out: IC50) came to 181 nM; in experiment [3] (read-out: IC50), 88.1 nM. In addition, the Activity was 0.65 cm in the experiment with Rattus norvegicus [6], 0.7 cm in the experiment on Rattus norvegicus [7] and 1.02 cm in the experiment on Rattus norvegicus [10]. The Selectivity Index in the experiment listed under Homo sapiens amounted to 0.47.
In the case of `O=C(/C=C/c1ccccc1O)Nc1ccccc1`, the Time is listed as 4.12 min in the experiment with Rattus norvegicus [1]; 2.63 min in the experiment on Rattus norvegicus [4]; 3.78 min with Rattus norvegicus [5]; 4.18 min in the experiment with Rattus norvegicus [8]; 3.92 min in the experiment on Rattus norvegicus [9]; 3.97 min in the experiment with Rattus norvegicus [11]. Moreover, the Activity amounted to 0.65 cm in the experiment on Rattus norvegicus [6], 0.83 cm in the experiment with Rattus norvegicus [7] and 1.02 cm with Rattus norvegicus [10].
On to `O=C(NN1C(=O)C=CC1=O)c1ccccc1O`, for which the Time was determined as 5.52 min in the experiment on Rattus norvegicus [1]; 2.58 min with Rattus norvegicus [4]; 5.98 min with Rattus norvegicus [5]; 5.47 min in the experiment with Rattus norvegicus [8]; 5.23 min with Rattus norvegicus [9]; 5.13 min in the experiment on Rattus norvegicus [11]. Moreover, the IC50 result in [2] and in experiment [3] was “Not Active” each time. For the same molecule, the Activity in the experiment with Rattus norvegicus [6] is listed as 0.77 cm; in the experiment on Rattus norvegicus [7] it was 0.83 cm; in the experiment with Rattus norvegicus [10], 1 cm.
Regarding `O=C(NN1C(=O)CCC1=O)c1ccccc1O`, the Time in the experiment on Rattus norvegicus [1] is 4.98 min; with Rattus norvegicus [4], 2.42 min; in the experiment with Rattus norvegicus [5], 5.02 min; with Rattus norvegicus [8] it was 4.85 min; with Rattus norvegicus [9], 5.28 min; with Rattus norvegicus [11], 5.78 min. Besides, the IC50 result in [2] and in experiment [3] was “Not Active” in each case. The Activity in the experiment on Rattus norvegicus [6] was determined as 0.62 cm; in the experiment with Rattus norvegicus [7], 0.73 cm; in the experiment with Rattus norvegicus [10], 1 cm.
Consider `CCOC(=O)C1=C(N)n2c(=O)c3ccccc3c(=O)n2C1c1ccccc1O` (stereo not given), for which the Time in the experiment on Rattus norvegicus [1] is listed as 6.68 min; with Rattus norvegicus [4], 2.52 min; in the experiment with Rattus norvegicus [5] it was 5.53 min; in the experiment on Rattus norvegicus [8], 6.85 min; in the experiment on Rattus norvegicus [9], 6.33 min; in the experiment on Rattus norvegicus [11], 5.62 min. Also, the IC50 entry in experiment [2] and in [3] was “Not Active” in each case. Further, the Activity in the experiment with Rattus norvegicus [6] stood at 0.67 cm; in the experiment on Rattus norvegicus [7] it was 0.72 cm; in the experiment with Rattus norvegicus [10], 0.97 cm.
Take `O=C(NN1C(=O)c2cccnc2C1=O)c1ccccc1O`: the Time with Rattus norvegicus [1] is 3.97 min; in the experiment on Rattus norvegicus [4] it was 2.57 min; with Rattus norvegicus [5], 3.78 min; in the experiment with Rattus norvegicus [8] it was 4.3 min; in the experiment with Rattus norvegicus [9], 4.27 min; in the experiment with Rattus norvegicus [11] it was 4.17 min. In addition, the IC50 entry in experiment [2] and in experiment [3] was “Not Active” each time. Also, the figures for the Activity in the experiment on Rattus norvegicus [6], in the experiment with Rattus norvegicus [7] and in the experiment on Rattus norvegicus [10] were 0.72 cm, 0.83 cm and 0.97 cm, respectively.
As to `O=C([O-])Cc1ccccc1Nc1c(Cl)cccc1Cl.[Na+]` [DICLOFENAC SODIUM], the Time was 4.98 min in the experiment with Rattus norvegicus [1]; 2.63 min with Rattus norvegicus [4]; 6.44 min in the experiment on Rattus norvegicus [5]; 4.87 min in the experiment with Rattus norvegicus [8]; 4.21 min with Rattus norvegicus [9]; 3.99 min in the experiment with Rattus norvegicus [11]. In addition, the Activity with Rattus norvegicus [6] is 0.63 cm; in the experiment on Rattus norvegicus [7], 0.77 cm; in the experiment with Rattus norvegicus [10], 1.02 cm.
Regarding `CC1=NN(C(=O)c2ccccc2O)C(=O)C1`, the Time in the experiment with Rattus norvegicus [1] is 4.78 min; in the experiment with Rattus norvegicus [4], 2.48 min; with Rattus norvegicus [5], 5.52 min; in the experiment with Rattus norvegicus [8] it was 4.7 min; in the experiment on Rattus norvegicus [9] it was 4.67 min; in the experiment on Rattus norvegicus [11], 4.4 min. For the same molecule, the IC50 in experiment [2] (read-out: IC50) came out at 151 nM; in [3] (read-out: IC50), 82.1 nM. Besides, the figures for the Activity with Rattus norvegicus [6], in the experiment with Rattus norvegicus [7] and with Rattus norvegicus [10] were 0.67 cm, 0.77 cm and 1.02 cm, respectively. For the same molecule, the Selectivity Index in the experiment filed under Homo sapiens came to 0.54.
With `O=C(NN1C(=O)c2ccccc2C1=O)c1ccccc1O`, the Time in the experiment on Rattus norvegicus [1] is on record as 5.58 min; in the experiment on Rattus norvegicus [4] it was 2.55 min; in the experiment on Rattus norvegicus [5], 5.58 min; in the experiment on Rattus norvegicus [8] it was 6.25 min; in the experiment with Rattus norvegicus [9], 6.23 min; in the experiment with Rattus norvegicus [11], 7.2 min. In addition, the IC50 in [2] (read-out: IC50) was determined as 130 nM; in [3] (read-out: IC50), 92.2 nM. Besides, the Activity came to 0.72 cm in the experiment on Rattus norvegicus [6], 0.73 cm in the experiment with Rattus norvegicus [7] and 0.98 cm in the experiment with Rattus norvegicus [10]. Besides, the Selectivity Index in the experiment listed under Homo sapiens was found to be 0.71.
In the case of `CCOC(=O)C1=C(N)n2c(=O)c3ncccc3c(=O)n2C1c1ccccc1O` (stereo not given), the Time with Rattus norvegicus [1] was found to be 5.53 min; in the experiment on Rattus norvegicus [4] it was 2.55 min; in the experiment on Rattus norvegicus [5] it was 5.83 min; in the experiment with Rattus norvegicus [8] it was 5.75 min; with Rattus norvegicus [9], 5.25 min; in the experiment with Rattus norvegicus [11], 4.08 min. In addition, the IC50 was determined as 20.1 nM in experiment [2] (read-out: IC50) and 66.7 nM in [3] (read-out: IC50). In addition, the Activity with Rattus norvegicus [6] worked out at 0.62 cm; in the experiment with Rattus norvegicus [7], 0.68 cm; in the experiment with Rattus norvegicus [10] it was 0.98 cm. Further, in the experiment listed under Homo sapiens, the Selectivity Index came to 3.32.
For the molecule `O=C(c1ccccc1O)n1nc(Nc2ccccc2)cc1-c1ccccc1O`, the Time with Rattus norvegicus [1] is reported as 4.05 min; in the experiment with Rattus norvegicus [4] it was 2.47 min; in the experiment on Rattus norvegicus [5] it was 3.95 min; in the experiment with Rattus norvegicus [8], 4.18 min; in the experiment with Rattus norvegicus [9], 4.07 min; with Rattus norvegicus [11], 4.22 min. Also, the IC50 in experiment [2] (read-out: IC50) was determined as 16.2 nM; in experiment [3] (read-out: IC50), 70.4 nM. Further, the Activity with Rattus norvegicus [6] came out at 0.55 cm; in the experiment with Rattus norvegicus [7], 0.63 cm; in the experiment on Rattus norvegicus [10], 0.97 cm. The Selectivity Index in the experiment listed under Homo sapiens was 4.35.
For `CCOC(=O)C1=C(N)n2c(=O)ccc(=O)n2C1c1ccccc1O` (stereo not given), the Time was determined as 4.47 min with Rattus norvegicus [1]; 2.72 min in the experiment on Rattus norvegicus [4]; 4.33 min in the experiment with Rattus norvegicus [5]; 4.58 min in the experiment on Rattus norvegicus [8]; 4.52 min in the experiment on Rattus norvegicus [9]; 4.43 min in the experiment on Rattus norvegicus [11]. Further, the IC50 was found to be 90.1 nM in [2] (read-out: IC50) and 74.4 nM in [3] (read-out: IC50). Also, the Activity in the experiment on Rattus norvegicus [6] was determined as 0.7 cm; in the experiment on Rattus norvegicus [7], 0.82 cm; with Rattus norvegicus [10], 1.03 cm. Besides, the Selectivity Index in the experiment listed under Homo sapiens was 0.83.
Turning to `Cc1cc(C)n(C(=O)c2ccccc2O)n1`, the Time in the experiment with Rattus norvegicus [1] amounted to 5.79 min; with Rattus norvegicus [4], 2.62 min; in the experiment on Rattus norvegicus [5] it was 6.05 min; in the experiment on Rattus norvegicus [8], 4.83 min; in the experiment on Rattus norvegicus [9], 5.66 min; with Rattus norvegicus [11], 4.8 min. Further, the IC50 entry in experiment [2] and in experiment [3] was “Not Active” in each case. Also, the Activity in the experiment on Rattus norvegicus [6] is 0.67 cm; in the experiment on Rattus norvegicus [7] it was 0.75 cm; with Rattus norvegicus [10], 0.98 cm.

These data come from ChEMBL document CHEMBL4028830, “Novel pyrazoles and pyrazolo[1,2-a]pyridazines as selective COX-2 inhibitors; Ultrasound-assisted synthesis, biological evaluation, and DFT calculations” (Bioorg Med Chem Lett, 2017).
